Measurements from patent publication US10597388B2, “Pyridazinone herbicides” (FMC CORPORATION, priority 2014, dated 2020).

Experiments:
Assay type in all cases: in vivo
[1] = test system: ragweed (common ragweed, Ambrosia elatior); assay: Test C greenhouse herbicide test, pre- and postemergence
Text: (§1) Seeds of plant species selected from blackgrass (Alopecurus myosuroides), ryegrass, Italian (Italian ryegrass, Lolium multiflorum), wheat (winter wheat, Triticum aestivum), galium (catchweed bedstraw, Galium aparine), corn (Zea mays), large crabgrass, large (large crabgrass, Digitaria sanguinalis), foxtail, giant (giant foxtail, Setaria faberii), johnsongrass (Sorghum halepense), lambsquarters (Chenopodium album), morningglory (Ipomoea coccinea), nutsedge, yellow (yellow nutsedge, Cyperus esculentus), pigweed (Amaranthus retroflexus), ragweed (common ragweed, Ambrosia elatior), soybean (Glycine max), barnyardgrass (Echinochloa crus-galli), oilseed rape (Brassica napus), waterhemp (common waterhemp, Amaranthus rudis), and velvetleaf (Abutilon theophrasti) were planted into a blend of loam soil and sand and treated preemergence with test chemicals formulated in a non-phytotoxic solvent mixture which included a surfactant.
(§2) At the same time, plants selected from these crop and weed species and also chickweed (common chickweed, Stellaria media), kochia (Kochia scoparia), and oat, wild (wild oat, Avena fatua), were planted in pots containing Redi-Earth® planting medium (Scotts Company, 14111 Scottslawn Road, Marysville, Ohio 43041) comprising spaghnum peat moss, vermiculite, wetting agent and starter nutrients and treated with postemergence applications of test chemicals formulated in the same manner. Plants ranged in height from 2 to 18 cm (1- to 4-leaf stage) for postemergence treatments. Treated plants and controls were maintained in a greenhouse for 13 to 15 d, after which time all species were compared to controls and visually evaluated. Plant response ratings, summarized in Table C, are based on a scale of 0 to 100 where 0 is no effect and 100 is complete control. A dash (-) response means no test result.

[2] = test system: lambsquarters (Chenopodium album); assay: as above
Text: as §1, §2

[3] = test system: morningglory (Ipomoea coccinea); assay: as above
Text: as §1, §2

[4] = test system: pigweed (Amaranthus retroflexus); assay: as above
Text: as §1, §2

[5] = test system: oilseed rape (Brassica napus); assay: as above
Text: as §1, §2

[6] = test system: waterhemp (common waterhemp, Amaranthus rudis); assay: as above
Text: as §1, §2

[7] = test system: blackgrass (Alopecurus myosuroides); assay: Test A greenhouse herbicide test, postemergence; conditions: for Plant response rating, Blackgrass: 125 g ai/ha, 0 to 100 scale where 0 is no effect and 100 is complete control; for Blackgrass plant response rating: 500 g ai/ha, 0 to 100 scale, 0 is no effect, 100 is complete control
Procedure, shortened: (§3)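 Greenhouse postemergence test: formulated chemicals sprayed on one- to two-leaf plants (2 to 10 cm), grown in loam soil blended with sand. Injury assessed visually about 10 d later against untreated controls, scored 0 (no effect) to 100 (complete control).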

[8] = test system: galium (catchweed bedstraw, Galium aparine); assay: Test A greenhouse herbicide test, postemergence; conditions: for Plant response rating, Galium: 125 g ai/ha, 0 to 100 scale where 0 is no effect and 100 is complete control; for Galium plant response rating: 500 g ai/ha, 0 to 100 scale, 0 is no effect, 100 is complete control
Procedure, shortened: as §3

[9] = test system: pigweed (Amaranthus retroflexus); assay: Test A greenhouse herbicide test, pre- and postemergence
Procedure, shortened: (§4)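 Seeds sown in loam–sand blend got a preemergence directed soil spray of compound in non-phytotoxic solvent with surfactant. Postemergence treatment was given at 2–10 cm, one- to two-leaf stage. After ~10 d in greenhouse, injury was rated visually vs untreated controls, 0 (no effect) to 100 (complete control).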

[10] = test system: ryegrass, Italian (Italian ryegrass, Lolium multiflorum); assay: as above
Procedure, shortened: as §4

[11] = test system: wheat (Triticum aestivum); assay: as above; conditions: Postemergence; for Plant response rating, Wheat: 125 g ai/ha, 0 to 100 scale where 0 is no effect and 100 is complete control; for Wheat plant response rating: 500 g ai/ha, 0 to 100 scale, 0 is no effect, 100 is complete control
Procedure, shortened: as §4

[12] = Postemergence, 31 g ai/ha, 0 to 100 scale (0 no effect, 100 complete control)
[13] = Postemergence, 125 g ai/ha, scale 0 to 100, 0 is no effect, 100 is complete control
[14] = Postemergence, 250 g ai/ha, scale 0 to 100, 0 no effect, 100 complete control, 13 to 15 d
[15] = Preemergence, 31 g ai/ha, scale 0 to 100, 0 is no effect, 100 is complete control
[16] = Preemergence, 62 g ai/ha, scale 0 to 100, 0 is no effect, 100 is complete control
[17] = Preemergence, 125 g ai/ha, scale 0 to 100, 0 is no effect, 100 is complete control
[18] = Preemergence, 250 g ai/ha, scale 0 to 100, 0 no effect, 100 complete control
[19] = postemergence, 62 g ai/ha, scale 0 to 100, 0 no effect, 100 complete control
[20] = Postemergence, 125 g ai/ha, 0 to 100 scale where 0 is no effect and 100 is complete control
[21] = Postemergence, 500 g ai/ha, 0 to 100 scale, 0 is no effect, 100 is complete control
[22] = Preemergence, 125 g ai/ha, 0 to 100 scale where 0 is no effect and 100 is complete control
[23] = Preemergence, 500 g ai/ha, 0 to 100 scale where 0 is no effect and 100 is complete control

Cc1ccc2ccccc2c1-c1c(OC(=O)OC(C)C)c(C)nn(C)c1=O [Compound 72]
Ragweed plant response rating [1, 12]: 80
Plant response rating, Ragweed [1, 13]: 95
Plant response rating, Ragweed [1, 14]: 90
Plant response rating, Ragweed [1, 15]: 85
Plant response rating, Ragweed [1, 16]: 90
Plant response rating, Ragweed [1, 17]: 100
Ragweed plant response rating [1, 18]: 95
Ragweed plant response rating [1, 19]: 90
Lambsquarters plant response rating [2, 12]: 85
Plant response rating, Lambsquarters [2, 13]: 90
Plant response rating, Lambsquarters [2, 14]: 95
Plant response rating, Lambsquarters [2, 15]: 60
Plant response rating, Lambsquarters [2, 16]: 65
Plant response rating, Lambsquarters [2, 17]: 85
Lambsquarters plant response rating [2, 18]: 90
Lambsquarters plant response rating [2, 19]: 85
Morningglory plant response rating [3, 12]: 80
Plant response rating, Morningglory [3, 13]: 95
Plant response rating, Morningglory [3, 14]: 100
Plant response rating, Morningglory [3, 15]: 75
Plant response rating, Morningglory [3, 16]: 85
Plant response rating, Morningglory [3, 17]: 90
Morningglory plant response rating [3, 18]: 90
Morningglory plant response rating [3, 19]: 90
Pigweed plant response rating [4, 12]: 85
Plant response rating, Pigweed [4, 13]: 95
Plant response rating, Pigweed [4, 14]: 98
Plant response rating, Pigweed [4, 15]: 90
Plant response rating, Pigweed [4, 16]: 98
Plant response rating, Pigweed [4, 17]: 98
Pigweed plant response rating [4, 18]: 100
Pigweed plant response rating [4, 19]: 90
Oilseed Rape plant response rating [5, 12]: 40
Plant response rating, Oilseed Rape [5, 13]: 20
Plant response rating, Oilseed Rape [5, 14]: 85
Plant response rating, Oilseed Rape [5, 15]: 30
Plant response rating, Oilseed Rape [5, 16]: 35
Plant response rating, Oilseed Rape [5, 17]: 80
Oilseed Rape plant response rating [5, 18]: 80
Oilseed Rape plant response rating [5, 19]: 35
Waterhemp plant response rating [6, 12]: 70
Plant response rating, Waterhemp [6, 13]: 85
Plant response rating, Waterhemp [6, 14]: 85
Plant response rating, Waterhemp [6, 15]: 75
Plant response rating, Waterhemp [6, 16]: 90
Plant response rating, Waterhemp [6, 17]: 90
Waterhemp plant response rating [6, 18]: 90
Waterhemp plant response rating [6, 19]: 65
Plant response rating, Blackgrass [7]: 70
Blackgrass plant response rating [7]: 90
Plant response rating, Galium [8]: 90
Galium plant response rating [8]: 100
Plant response rating, Pigweed [9, 20]: 90
Pigweed plant response rating [9, 21]: 90
Pigweed plant response rating [9, 22]: 100
Plant response rating, Pigweed [9, 23]: 100
Plant response rating, Ryegrass, Italian [10, 20]: 100
Ryegrass, Italian plant response rating [10, 21]: 100
Ryegrass, Italian plant response rating [10, 22]: 100
Plant response rating, Ryegrass, Italian [10, 23]: 100
Plant response rating, Wheat [11]: 20
Wheat plant response rating [11]: 70

Cc1nn(C)c(=O)c(-c2ccc(Br)c3ccccc23)c1O [Compound 75]
Ragweed plant response rating [1, 12]: 95
Plant response rating, Ragweed [1, 13]: 100
Plant response rating, Ragweed [1, 14]: 100
Plant response rating, Ragweed [1, 15]: 80
Plant response rating, Ragweed [1, 16]: 85
Plant response rating, Ragweed [1, 17]: 90
Ragweed plant response rating [1, 18]: 100
Ragweed plant response rating [1, 19]: 85
Lambsquarters plant response rating [2, 12]: 100
Plant response rating, Lambsquarters [2, 13]: 100
Plant response rating, Lambsquarters [2, 14]: 100
Plant response rating, Lambsquarters [2, 15]: 65
Plant response rating, Lambsquarters [2, 16]: 100
Plant response rating, Lambsquarters [2, 17]: 85
Lambsquarters plant response rating [2, 18]: 90
Lambsquarters plant response rating [2, 19]: 100
Morningglory plant response rating [3, 12]: 98
Plant response rating, Morningglory [3, 13]: 100
Plant response rating, Morningglory [3, 14]: 75
Plant response rating, Morningglory [3, 15]: 70
Plant response rating, Morningglory [3, 16]: 85
Plant response rating, Morningglory [3, 17]: 95
Morningglory plant response rating [3, 18]: 100
Morningglory plant response rating [3, 19]: 100
Pigweed plant response rating [4, 12]: 85
Plant response rating, Pigweed [4, 13]: 100
Plant response rating, Pigweed [4, 14]: 98
Plant response rating, Pigweed [4, 15]: 85
Plant response rating, Pigweed [4, 16]: 100
Plant response rating, Pigweed [4, 17]: 100
Pigweed plant response rating [4, 18]: 100
Pigweed plant response rating [4, 19]: 95
Oilseed Rape plant response rating [5, 12]: 70
Plant response rating, Oilseed Rape [5, 13]: 90
Plant response rating, Oilseed Rape [5, 14]: 80
Plant response rating, Oilseed Rape [5, 15]: 30
Plant response rating, Oilseed Rape [5, 16]: 70
Plant response rating, Oilseed Rape [5, 17]: 90
Oilseed Rape plant response rating [5, 18]: 98
Oilseed Rape plant response rating [5, 19]: 70
Waterhemp plant response rating [6, 12]: 100
Plant response rating, Waterhemp [6, 13]: 100
Plant response rating, Waterhemp [6, 14]: 100
Plant response rating, Waterhemp [6, 15]: 100
Plant response rating, Waterhemp [6, 16]: 100
Plant response rating, Waterhemp [6, 17]: 100
Waterhemp plant response rating [6, 18]: 100
Waterhemp plant response rating [6, 19]: 100
Plant response rating, Blackgrass [7]: 50
Blackgrass plant response rating [7]: 70
Plant response rating, Galium [8]: 90
Galium plant response rating [8]: 100
Plant response rating, Pigweed [9, 20]: 30
Pigweed plant response rating [9, 21]: 50
Pigweed plant response rating [9, 22]: 100
Plant response rating, Pigweed [9, 23]: 100
Plant response rating, Ryegrass, Italian [10, 20]: 90
Ryegrass, Italian plant response rating [10, 21]: 100
Ryegrass, Italian plant response rating [10, 22]: 100
Plant response rating, Ryegrass, Italian [10, 23]: 100
Plant response rating, Wheat [11]: 0
Wheat plant response rating [11]: 20
